The source of these data is patent US10160747B2, “Compounds and methods for kinase modulation, and indications therefor” (Plexxikon Inc., priority 2016, dated 2018).

The target of assay [1] is T1, FLT3-ITD (Homo sapiens, UniProt P36888).
T1 sequence (P36888 1-993): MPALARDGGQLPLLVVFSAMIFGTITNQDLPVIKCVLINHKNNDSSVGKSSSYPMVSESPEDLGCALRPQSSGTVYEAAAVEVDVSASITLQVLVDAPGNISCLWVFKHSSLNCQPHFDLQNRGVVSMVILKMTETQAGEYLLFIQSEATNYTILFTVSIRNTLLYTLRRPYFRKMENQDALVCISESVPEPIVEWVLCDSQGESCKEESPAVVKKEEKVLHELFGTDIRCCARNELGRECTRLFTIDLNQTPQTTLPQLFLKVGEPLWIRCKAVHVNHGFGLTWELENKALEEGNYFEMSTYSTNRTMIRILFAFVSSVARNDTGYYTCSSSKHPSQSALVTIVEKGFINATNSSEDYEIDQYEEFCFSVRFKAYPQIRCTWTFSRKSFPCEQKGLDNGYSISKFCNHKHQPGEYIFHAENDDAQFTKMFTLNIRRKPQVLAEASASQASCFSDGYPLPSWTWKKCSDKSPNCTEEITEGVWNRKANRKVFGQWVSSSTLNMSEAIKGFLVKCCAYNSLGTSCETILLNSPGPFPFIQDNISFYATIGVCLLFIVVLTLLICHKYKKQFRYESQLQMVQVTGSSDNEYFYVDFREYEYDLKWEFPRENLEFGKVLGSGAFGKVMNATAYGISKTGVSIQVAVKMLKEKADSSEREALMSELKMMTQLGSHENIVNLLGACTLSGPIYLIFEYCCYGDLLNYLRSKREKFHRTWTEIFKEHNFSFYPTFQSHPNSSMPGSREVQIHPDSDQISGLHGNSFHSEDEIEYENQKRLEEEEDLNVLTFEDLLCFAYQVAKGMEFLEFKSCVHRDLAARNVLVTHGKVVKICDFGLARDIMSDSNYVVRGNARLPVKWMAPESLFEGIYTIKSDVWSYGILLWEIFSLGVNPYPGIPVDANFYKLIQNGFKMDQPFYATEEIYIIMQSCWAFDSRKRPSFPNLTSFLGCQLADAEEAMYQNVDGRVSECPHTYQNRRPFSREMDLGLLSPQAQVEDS
In words: FLT3-ITD recombinant enzyme kinase assay (AlphaScreen). It is filed as biochemical. The following applies: 8 pt; read-out: FLT3_ITD 8 pt: IC50. Summed up:
(§1)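 Recombinant enzyme phosphorylated biotinylated poly(Glu4-Tyr) peptide (30 nM final) with ATP at 10 μM for FLT3-ITD and FLT3-D835Y or 100 μM for c-KIT. Phosphopeptide was detected by AlphaScreen with streptavidin donor and anti-phosphotyrosine (PY20) acceptor beads (10 μg/mL), read at 580 nm, for IC50 determination.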

Assay [2] addresses T2, FLT3-D835Y (Homo sapiens, UniProt P36888, D835Y).
T2 construct: purchased Invitrogen PV3967
T2 sequence (P36888 27-993 D835Y): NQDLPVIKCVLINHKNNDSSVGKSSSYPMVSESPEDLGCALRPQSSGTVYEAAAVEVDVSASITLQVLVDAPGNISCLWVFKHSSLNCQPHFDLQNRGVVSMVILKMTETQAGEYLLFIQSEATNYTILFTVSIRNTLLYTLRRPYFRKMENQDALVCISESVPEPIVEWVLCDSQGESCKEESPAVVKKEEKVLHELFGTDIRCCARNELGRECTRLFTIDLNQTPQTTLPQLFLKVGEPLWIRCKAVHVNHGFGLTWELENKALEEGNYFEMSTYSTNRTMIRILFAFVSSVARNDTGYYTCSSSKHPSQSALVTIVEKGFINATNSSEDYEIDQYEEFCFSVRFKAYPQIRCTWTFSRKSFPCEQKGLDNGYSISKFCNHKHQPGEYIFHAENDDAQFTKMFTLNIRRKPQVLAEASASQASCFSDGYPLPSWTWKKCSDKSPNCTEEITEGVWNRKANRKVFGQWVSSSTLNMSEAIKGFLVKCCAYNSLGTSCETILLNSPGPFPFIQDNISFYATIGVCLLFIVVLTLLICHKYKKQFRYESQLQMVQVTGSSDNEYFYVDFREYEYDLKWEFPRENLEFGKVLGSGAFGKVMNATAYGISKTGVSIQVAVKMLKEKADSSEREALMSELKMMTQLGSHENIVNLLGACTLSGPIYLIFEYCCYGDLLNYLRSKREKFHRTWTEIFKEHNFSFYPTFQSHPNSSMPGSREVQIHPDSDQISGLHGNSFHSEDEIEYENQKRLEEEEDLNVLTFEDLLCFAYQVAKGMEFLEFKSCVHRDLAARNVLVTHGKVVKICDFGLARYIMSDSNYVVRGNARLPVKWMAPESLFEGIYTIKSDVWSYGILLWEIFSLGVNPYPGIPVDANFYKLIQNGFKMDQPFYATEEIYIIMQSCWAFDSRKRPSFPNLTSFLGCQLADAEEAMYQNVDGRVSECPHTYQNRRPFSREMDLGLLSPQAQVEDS
Kind of assay: FLT3-D835Y recombinant enzyme kinase assay (AlphaScreen). The class given is biochemical. The following applies: 8 pt, GMean. The procedure, abridged: as §1

One may read the IC50 as the concentration that inhibits the measured activity by half. `Cc1ncc(NC(=O)Cc2ccc(-c3cnc4[nH]nc(C)c4c3)c(F)c2)cc1C(F)(F)F` [Compound P-0172, 2-[3-fluoro-4-(3-methyl-1H-pyrazolo[3,4-b]pyridin-5-yl)phenyl]-N-[6-methyl-5-(trifluoromethyl)-3-pyridyl]acetamide]: the half-inhibitory concentration (IC50) in assay [1] and in assay [2] was 0.0001 to 10 µM throughout.

For the compound `Cc1ncc(NC(=O)Cc2cc(F)c(-c3cnc4[nH]nc(C)c4c3)cc2F)cc1C(F)(F)F` [Compound P-0175, 2-(2,5-difluoro-4-(3-methyl-1H-pyrazolo[3,4-b]pyridin-5-yl)phenyl)-N-(6-methyl-5-(trifluoromethyl)pyridin-3-yl)acetamide], the IC50 in assay [1] and in assay [2] was 0.0001 to 10 µM each time.

In the case of `Cn1cc(Nc2ncc(-c3ccc(CC(=O)Nc4ccc(C(F)(F)F)cn4)c(F)c3)cn2)cn1` [Compound P-0106, 2-[2-fluoro-4-[2-[(1-methylpyrazol-4-yl)amino]pyrimidin-5-yl]phenyl]-N-[5-(trifluoromethyl)-2-pyridyl]acetamide], the half-maximal inhibitory concentration (IC50) in assay [1] and in assay [2] was 0.0001 to 10 µM throughout.

`Cn1cc(Nc2ncc(-c3ccc(CC(=O)Nc4cnc(Cl)c(C(F)(F)F)c4)cc3)cn2)cn1` [Compound P-0145, N-[6-chloro-5-(trifluoromethyl)-3-pyridyl]-2-[4-[2-[(1-methylpyrazol-4-yl)amino]pyrimidin-5-yl]phenyl]acetamide]: the IC50 in assay [1] and in assay [2] was 0.0001 to 10 µM each time.

Regarding `COc1ncc(NC(=O)Cc2cc(F)c(-c3cnc4[nH]nc(C)c4c3)cc2F)cc1C(F)(F)F` [Compound P-0176, 2-[2,5-difluoro-4-(3-methyl-1H-pyrazolo[3,4-b]pyridin-5-yl)phenyl]-N-[6-methoxy-5-(trifluoromethyl)-3-pyridyl]acetamide], the half-inhibitory concentration (IC50) in assay [1] and in assay [2] was 0.0001 to 10 µM in each case.

In the case of `Cn1cc(Nc2ncc(-c3ccc(CC(=O)Nc4ccnc(S(C)(=O)=O)c4)cc3)cn2)cn1` [Compound P-0154, 2-[4-[2-[(1-methylpyrazol-4-yl)amino]pyrimidin-5-yl]phenyl]-N-(2-methylsulfonyl-4-pyridyl)acetamide], the IC50 in assay [1] and in assay [2] was 0.0001 to 10 µM in each case.

As to `COCCn1cc(Nc2ncc(-c3ccc(CC(=O)Nc4cnc(C)c(C(F)(F)F)c4)cc3)cn2)cn1` [Compound P-0179, 2-[4-[2-[[1-(2-methoxyethyl)pyrazol-4-yl]amino]pyrimidin-5-yl]phenyl]-N-[6-methyl-5-(trifluoromethyl)-3-pyridyl]acetamide], the IC50 in assay [1] and in assay [2] was 0.0001 to 10 µM each time.

`COc1ccc(-c2cc3cc(-c4ccc(CC(=O)Nc5cncc(C(F)(F)F)c5)cc4F)cnc3[nH]2)cn1` [Compound P-0196, 2-[3-fluoro-4-[2-(6-methoxy-3-pyridyl)-1H-pyrrolo[2,3-b]pyridin-5-yl]phenyl]-N-[5-(trifluoromethyl)-3-pyridyl]acetamide]: the IC50 in assay [1] and in assay [2] was 0.0001 to 10 µM throughout.

In the case of `COc1ncc(NC(=O)Cc2ccc(-c3cnc4[nH]nc(C)c4c3)c(F)c2)cc1C(F)(F)F` [Compound P-0174, 2-[3-fluoro-4-(3-methyl-1H-pyrazolo[3,4-b]pyridin-5-yl)phenyl]-N-[6-methoxy-5-(trifluoromethyl)-3-pyridyl]acetamide], the concentration for half-maximal inhibition (IC50) in assay [1] and in assay [2] was 0.0001 to 10 µM each time.

On to `O=C(Cc1ccc(-c2cnc3[nH]c(-c4ccnc(N5CCOCC5)c4)cc3c2)cn1)Nc1ccnc(C(F)(F)F)c1` [Compound P-0181, 2-[5-[2-(2-morpholino-4-pyridyl)-1H-pyrrolo[2,3-b]pyridin-5-yl]-2-pyridyl]-N-[2-(trifluoromethyl)-4-pyridyl]acetamide], for which the concentration for half-maximal inhibition (IC50) in assay [1] and in assay [2] was 0.0001 to 10 µM throughout.

For the compound `N#Cc1cc(-c2cc3cc(-c4ccc(CC(=O)Nc5ccnc(C(F)(F)F)c5)nc4)cnc3[nH]2)ccn1` [Compound P-0182, 2-[5-[2-(2-cyano-4-pyridyl)-1H-pyrrolo[2,3-b]pyridin-5-yl]-2-pyridyl]-N-[2-(trifluoromethyl)-4-pyridyl]acetamide], the 50% inhibitory concentration (IC50) in assay [1] and in assay [2] was 0.0001 to 10 µM in each case.

`Cn1cnc(Nc2ncc(-c3ccc(CC(=O)Nc4cc(C(C)(F)F)ccn4)c(F)c3)cn2)c1` [Compound P-0102, N-[4-(1,1-difluoroethyl)-2-pyridyl]-2-[2-fluoro-4-[2-[(1-methylimidazol-4-yl)amino]pyrimidin-5-yl]phenyl]acetamide]: the 50% inhibitory concentration (IC50) in assay [1] and in assay [2] was 0.0001 to 10 µM throughout.

In the case of `Cn1cnc(Nc2ncc(-c3ccc(CC(=O)Nc4cnc(F)c(C(C)(F)F)c4)cc3F)cn2)c1` [Compound P-0170, N-[5-(1,1-difluoroethyl)-6-fluoro-3-pyridyl]-2-[3-fluoro-4-[2-[(1-methylimidazol-4-yl)amino]pyrimidin-5-yl]phenyl]acetamide], the half-maximal inhibitory concentration (IC50) in assay [1] and in assay [2] was 0.0001 to 10 µM in each case.

Take `Cc1ncc(NC(=O)Cc2ccc(-c3cnc(Nc4cnn(C)c4)nc3)cc2)cc1C(F)(F)F` [Compound P-0140, 2-[4-[2-[(1-methylpyrazol-4-yl)amino]pyrimidin-5-yl]phenyl]-N-[6-methyl-5-(trifluoromethyl)-3-pyridyl]acetamide]: the half-maximal inhibitory concentration (IC50) in assay [1] and in assay [2] was 0.0001 to 10 µM each time.

As to `Cn1cnc(Nc2ncc(-c3ccc(CC(=O)Nc4cc(C(C)(F)F)ccn4)cc3)cn2)c1` [Compound P-0169, N-[4-(1,1-difluoroethyl)-2-pyridyl]-2-[4-[2-[(1-methylimidazol-4-yl)amino]pyrimidin-5-yl]phenyl]acetamide], the IC50 in assay [1] and in assay [2] was 0.0001 to 10 µM each time.

Take `Cn1cc(Nc2ncc(-c3ccc(CC(=O)Nc4cnc(Cl)c(C(F)(F)F)c4)c(F)c3)cn2)cn1` [Compound P-0092, N-[6-chloro-5-(trifluoromethyl)-3-pyridyl]-2-[2-fluoro-4-[2-[(1-methylpyrazol-4-yl)amino]pyrimidin-5-yl]phenyl]acetamide]: the IC50 in assay [1] and in assay [2] was 0.0001 to 10 µM each time.

For the compound `Cn1cc(Nc2ncc(-c3ccc(CC(=O)Nc4cccnc4)cc3)cn2)cn1` [Compound P-0131, 2-[4-[2-[(1-methylpyrazol-4-yl)amino]pyrimidin-5-yl]phenyl]-N-(3-pyridyl)acetamide], the IC50 in assay [1] and in assay [2] was 0.0001 to 10 µM throughout.

`O=C(Cc1ccc(-c2cnc3[nH]c(-c4ccc(N5CCOCC5)nc4)cc3c2)cn1)Nc1ccnc(C(F)(F)F)c1` [Compound P-0183, 2-[5-[2-(6-morpholino-3-pyridyl)-1H-pyrrolo[2,3-b]pyridin-5-yl]-2-pyridyl]-N-[2-(trifluoromethyl)-4-pyridyl]acetamide]: the IC50 in assay [1] and in assay [2] was 0.0001 to 10 µM in each case.
